Measurements as given in patent publication US20100113415A1, “EPHA4 RTK INHIBITORS FOR TREATMENT OF NEUROLOGICAL AND NEURODEGENERATIVE DISORDERS AND CANCER” (priority 2008, published 2010).

How the values were obtained:
P38alpha kinase = target: T1, P38alpha kinase (Homo sapiens, UniProt Q16539); experiment: P38 alpha kinase counterscreen assay (Caliper mobility shift); type: biochemical
T1 construct: purchased Dundee Library
Description: A counterscreen assay was performed to measure p38alpha kinase activity using the Caliper System (LifeSciences, USA). This system is based on the microfluidic technology. P38 alpha kinase activity was measured by the shift in mobility of the non-phosphorylated form when separated by electrophoresis and detected via LED (Light Emitting Diode) induced fluorescence. This assay was automated following the manufacturer's protocol. P38alpha kinase and its substrate GST-MK2 were bought from Dundee Library.
Compounds were titrated, concentration-response curves were represented and the concentrations for 50% inhibition (IC50) were calculated.

[1] = target: T2, human form of EphA4 receptor over-expressed in CHO-K1 cells (Homo sapiens, UniProt P54764); experiment: EphA4 cell-based assay (pGAS-Luc luciferase reporter in EphA4-transfected CHO-K1 cells); settings: for IC50: inflexion point, luciferase, read-out: EphA4 Cell Assay IP; for EphA4 Cell Assay maximum percent inhibition: value in parentheses
T2 construct: expressed in transfected cells; host or cells: CHO-K1
Description: A cell-based assay was used to measure the potency of the compounds on the human form of EphA4 receptor over-expressed in Chinese Hamster Ovary cell line, CHO-K1 cells (Merck Collection). The cell assay was based on a novel signaling pathway of EphA4, which involves activation of the tyrosine kinase Jak2 and the transcriptional activator Stat3 (39).
Reagents: The expression constructs of EphA4 were subcloned into the expression vector pCMV6-XL5 (Origene, MD, USA) (clone from Merck Kinase Library). The luciferase construct that was linked to the Stat1-responsive enhancer (pGAS-Luc) was bought from Stratagene (USA). The renilla construct that linked to an empty vector CMV was bought from Promega (USA).
Transfection and Luciferase Assay: CHO-K1 cells were plated in T-175 cell culture bottle in DMEM medium supplemented with 10% fetal bovine serum, 1 mM sodium pyruvate, 2 mM L-glutamine and 1.5 g/L sodium bicarbonate. When cell reached 70-80% confluence, transfections were performed in T-175 culture flasks, using Lipofectamine 2000™ transfection reagent (Invitrogen) according to the manufacturer's directions. For the luciferase assay CHO-K1 cells were co-transfected the next day with 50 μg of pGAS-Luc, 70 μg of EphA4, and 5 μg of empty vector pRL-CMV, which encoded the Renilla luciferase, and was included in the transfection mix for normalization. Six hours after transfection the cells were trypsinized and plated at 4.105 cells/ml into 96 well Black/Clear Poly-D-Lysine coated plates (Biocoat) that had been pre-spotted with compounds. Cells were lysed the next day using the Reporter Lysis Buffer (Promega), and the luciferase activity was measured using the Dual Luciferase Assay (Promega) following the manufacturer's directions. The Firefly and Renilla luminescences are read consecutively on a Top-Count (Perkin-Elmer). Results are expressed as a ratio of the two luminescence: Firefly Luciferase/Renilla Luciferase. Cell viability was assessed on parallel plates using the Cell Glo Assay (Promega) following the manufacturer's directions. Results are expressed as percent of cell death in comparison with vehicle-treated wells.
Compounds were titrated in duplicate at 10 points concentration starting at 100 μM with a 1.5 fold increment. Concentration-response curves were represented and the concentrations at the inflexion point (IP) were calculated. The maximum effect was given by the maximum percent inhibition calculated from the results of the control wells (containing only DMSO).

[2] = system: Primary Rat cortical astrocytes; experiment: Scratch wound assay, astrocytes; type: cell-based; settings: from AUC of % wound confluence; for IC50: Rattus norvegicus, Astrocyte, inflexion point, read-out: Scratch Assay Astrocytes IP
Description: Primary Rat cortical astrocytes were purchased from Lonza (Walkersvelle Inc., MA, USA). Cells were plated in culture flasks at a density of 1.106-3.106 cells/ml, and maintained at 37° C. and 95% CO2/5% O2, in Astrocyte Growth Medium Bulletkit™ (Lonza Walkersville Inc., MA, USA). When astrocyte cultures reached confluence, cells were trypsinized and replated at 6.105 cells/ml onto 24 well ImageLock™ plate (Essen Instruments, MI, USA).
Scratch wound assays are commonly used to assess the effects of drugs and drug candidates on the cellular proliferation and/or migration associated with wound closing. The IncuCyte™ system (Essen Instruments, MI, USA), an automated imaging platform, provides ongoing, real-time images and quantitative data generated throughout the wound-closing process. Cells were maintained in 24 well ImageLock™ (Essen Instruments, MI, USA) at 37° C. and 95% CO2/5% O2, until a confluent monolayer was achieved. A single scratch wound was then created in each well using the Essen Woundmaker™ (Essen Instruments, MI, USA). It induced a mechanical scratch of the cell monolayer using plastic pipette tips (10-20 μl pipette tips, Eppendorff). Dead cells and other debris produced by the scratch were immediately washed with regular growth media. Cells were then treated with pharmacological agents and were placed into the IncuCyte™ at 37° C. and 95% CO2/5% O2, for two to three days. During this time, the wound area within each well was repeatedly imaged at fixed time intervals (every three hours). The IncuCyte™ scratch wound software generates a “wound mask” for each well. An initial wound mask is created for the first image (at time 0) that clearly delineates the border of the wound. A revised mask is generated for each subsequent image to track wound closure. Wound closure can be automatically monitored using the wound confluence (% confluence). Wound confluence can be graphed over time to evaluate the characteristics of wound closing in the presence of pharmacological agents.
The calculation of the area under the curve (AUC) of the % confluence function of the time gave a quantitative measurement of compounds efficacy on the scratch wound closing. Compounds were titrated in quadruplicate at 5 points concentration starting at 20 μM with a two-fold increment. The percentage of inhibition was calculated from the AUCs at each dose in comparison with the AUCs of the control wells (1% DMSO). Concentration-response curves were represented and the concentrations at the inflexion point (IP) were calculated. The maximum effect was given by the maximum percent inhibition.

P60c-src = target: T3, P60c-src (Homo sapiens, UniProt P12931); experiment: Src kinase counterscreen enzymatic assay (TR-FRET); type: biochemical; settings: 0.5 μM ATP
T3 construct: purchased Upstate biotechnology, USA
Description: Counterscreen assays were developed for the tyrosine kinases src kinase and Jak2 kinase, with a format essentially identical to the EphA4 kinase TR-FRET format. Jak2 (50 ng) (Cell Signaling, USA) was incubated with 0.5 μM of biotinylated FLT3 peptide (Cell Signaling, USA) in presence of 5 μM of ATP (Sigma). P60c-src (10 U/well) (Upstate biotechnology, USA) was incubated with biotinylated Poly(Glu Tyr) peptide (100 nM) in presence of 0.5 μM of ATP. The enzymatic reaction was stopped after 60 min by adding 15 mM EDTA. The detection reaction and energy transfer signal measurements were similar to those previously described. Results were expressed as ratios of the absorbencies 665/615.
Compounds were titrated in duplicate at 11 points concentration starting at 100 μM with a 3 fold increment. Compounds were diluted in DMSO. […] Percentage inhibition for each compound was then calculated based on the value of the 100% inhibition. Concentration-response curves were represented and the concentrations for 50% inhibition (IC50) were calculated.

T2 sequence (P54764 20-986): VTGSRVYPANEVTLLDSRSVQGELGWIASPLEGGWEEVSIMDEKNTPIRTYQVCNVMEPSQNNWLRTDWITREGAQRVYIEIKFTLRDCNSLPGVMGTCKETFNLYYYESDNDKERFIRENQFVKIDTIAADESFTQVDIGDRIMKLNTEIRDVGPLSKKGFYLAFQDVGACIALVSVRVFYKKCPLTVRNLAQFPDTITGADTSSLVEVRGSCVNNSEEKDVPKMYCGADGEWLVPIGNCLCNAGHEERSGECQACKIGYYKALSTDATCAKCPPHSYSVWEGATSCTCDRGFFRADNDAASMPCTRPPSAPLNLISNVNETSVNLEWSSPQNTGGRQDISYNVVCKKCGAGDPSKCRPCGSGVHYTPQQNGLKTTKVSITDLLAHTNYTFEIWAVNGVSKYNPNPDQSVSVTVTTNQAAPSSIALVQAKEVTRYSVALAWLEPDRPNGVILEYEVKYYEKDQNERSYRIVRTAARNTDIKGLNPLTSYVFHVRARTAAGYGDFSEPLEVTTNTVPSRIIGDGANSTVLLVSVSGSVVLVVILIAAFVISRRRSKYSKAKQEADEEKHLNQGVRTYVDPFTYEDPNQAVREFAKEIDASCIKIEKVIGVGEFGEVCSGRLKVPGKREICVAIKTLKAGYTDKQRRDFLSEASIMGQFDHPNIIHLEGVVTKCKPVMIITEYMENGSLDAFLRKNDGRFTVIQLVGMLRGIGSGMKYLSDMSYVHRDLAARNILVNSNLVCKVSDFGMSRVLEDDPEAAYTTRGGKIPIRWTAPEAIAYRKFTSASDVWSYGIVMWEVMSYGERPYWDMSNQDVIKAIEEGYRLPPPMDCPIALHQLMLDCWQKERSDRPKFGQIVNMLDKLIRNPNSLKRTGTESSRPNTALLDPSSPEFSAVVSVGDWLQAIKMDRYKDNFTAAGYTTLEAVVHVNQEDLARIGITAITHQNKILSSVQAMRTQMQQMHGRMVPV
T1 sequence (Q16539 whole entry): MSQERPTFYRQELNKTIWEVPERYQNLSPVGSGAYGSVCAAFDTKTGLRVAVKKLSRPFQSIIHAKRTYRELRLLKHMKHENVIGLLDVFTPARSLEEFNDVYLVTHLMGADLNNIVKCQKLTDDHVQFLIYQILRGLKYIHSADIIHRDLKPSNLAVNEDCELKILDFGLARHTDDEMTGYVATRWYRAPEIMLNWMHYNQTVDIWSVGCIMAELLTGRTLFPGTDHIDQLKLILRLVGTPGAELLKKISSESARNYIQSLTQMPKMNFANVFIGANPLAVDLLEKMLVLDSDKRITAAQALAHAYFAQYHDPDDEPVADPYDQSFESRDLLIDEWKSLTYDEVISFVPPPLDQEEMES
T3 sequence (P12931 whole entry): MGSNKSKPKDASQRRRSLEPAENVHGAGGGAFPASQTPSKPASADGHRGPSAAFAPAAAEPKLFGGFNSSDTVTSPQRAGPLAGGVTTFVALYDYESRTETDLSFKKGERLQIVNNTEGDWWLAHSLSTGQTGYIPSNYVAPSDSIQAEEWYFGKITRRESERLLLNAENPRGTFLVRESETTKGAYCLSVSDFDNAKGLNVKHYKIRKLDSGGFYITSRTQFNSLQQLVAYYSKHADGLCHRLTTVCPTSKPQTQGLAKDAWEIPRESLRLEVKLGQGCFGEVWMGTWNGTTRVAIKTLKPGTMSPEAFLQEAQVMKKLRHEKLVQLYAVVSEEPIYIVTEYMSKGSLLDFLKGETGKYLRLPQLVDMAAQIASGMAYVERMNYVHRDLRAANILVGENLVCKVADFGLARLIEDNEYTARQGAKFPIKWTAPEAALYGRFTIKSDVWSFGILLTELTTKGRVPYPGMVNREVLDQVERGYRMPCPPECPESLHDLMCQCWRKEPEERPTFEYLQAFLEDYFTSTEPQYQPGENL

Structure (SMILES)	IC50 (P38alpha kinase) [µM]	IC50 [1] [µM]	EphA4 Cell Assay maximum percent inhibition [1] [%]	IC50 [2] [µM]	Scratch Assay Astrocytes max inhibition in % [2] [%]	IC50 (P60c-src) [µM]
CC1CCc2c(-c3ccccc3Cl)nc3[nH]nc(N)c3c2C1 (stereo not drawn) [Example 63]	7.3	7.2	55	49	33	8.3
Cc1ccccc1-c1nc2[nH]nc(N)c2c2c1CCC(C)(C)C2 [Example 67]	3.7	2.3	46	1.4	66	0.3
